Earlier results in article PMC9109461, “Challenges and opportunities in the development of metal-based anticancer theranostic agents” (Bioscience Reports, 2022).

Tests used:
HeLa cells = system: HeLa cells; design: method as in PMID 28948792; details: MTT assay
A549R = system: A549R; design: method as in PMID 30888144; details: A549R cells
CaSki cells = system: CaSki cells; design: method as in PMID 30551086

IC50 (HeLa cells): 3 ± 1.2 µM | IC50 (CaSki cells): 4.2 µM
Substance: [(cis-Pt(NH3)2Cl2] [cisplatin]
IC50 (A549R): 51.3 ± 1.9 µM
